Measured values published in paper PMC6775094, “A robust bacterial assay for high-throughput screening of human 4-hydroxyphenylpyruvate dioxygenase inhibitors” (Scientific Reports, 2019).

What follows are compounds tested against T1, 4-hydroxyphenylpyruvate dioxygenase (HPD) (Homo sapiens, UniProt P32754) (assay: cell-based).
T1 construct: wild type human HPD (NM_002150.2), pET42b(+), expressed in E. coli C43 (DE3)
T1 sequence (P32754 2-393): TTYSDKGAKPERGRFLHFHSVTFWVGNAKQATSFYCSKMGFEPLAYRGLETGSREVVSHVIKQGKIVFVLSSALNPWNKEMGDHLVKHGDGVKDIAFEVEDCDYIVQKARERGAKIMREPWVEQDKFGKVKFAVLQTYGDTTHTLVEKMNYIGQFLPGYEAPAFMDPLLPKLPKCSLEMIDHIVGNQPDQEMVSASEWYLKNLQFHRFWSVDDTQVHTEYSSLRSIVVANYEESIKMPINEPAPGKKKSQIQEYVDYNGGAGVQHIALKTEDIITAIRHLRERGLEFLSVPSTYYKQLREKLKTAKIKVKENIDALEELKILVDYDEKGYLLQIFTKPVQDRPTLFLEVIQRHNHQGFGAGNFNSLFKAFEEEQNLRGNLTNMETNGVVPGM
For `CS(=O)(=O)c1ccc(C(=O)C2C(=O)CCCC2=O)c([N+](=O)[O-])c1` [mesotrione], the IC50 was 396 ± 48 nM. Work on `CS(=O)(=O)c1ccc(C(=O)C2C(=O)CCCC2=O)c(Cl)c1` [sulcotrione] yielded an IC50 of 187 ± 37 nM. Work on `CS(=O)(=O)c1ccc(C(=O)C2C(=O)CCCC2=O)c(Cl)c1COCC(F)(F)F` [tembotrione] yielded an IC50 of 610 ± 15 nM.
